In patent US20250388625A1, “CYCLOSPORINE ANALOGUES” (priority 2022, published 2025):
Where two headings read alike, the source gives them in different places.

Experiments:
CypA = CypA (Homo sapiens, UniProt P62937); experiment: biochemical; format: binding; conditions: for Max Response / Kd: SPR, Biacore, 25° C.
Method: CypA binding was carried out using surface plasmon resonance as described (Warne J Biol Chem. 2016 Feb. 26; 291 (9): 4356-73).
Surface Plasmon Resonance (SPR) using Biacore at 25° C. was used to study the binding interactions between CypA and various inhibitors. The SPR binding experiments used a duel flow cell with a blank reference. The sensor chip surface was initially activated with a mixture of N-hydroxysuccinimide (NHS,) and N-(3-dimethyl-aminopropyl)-N′-ethyl-carbodiimide hydrochloride (EDC) for 420 s with a flow rate of 10 μl/min on blank flow cell 1 in addition to flow cell 2.
CypA protein was diluted to a concentration of 50 μg/mL by the addition of 10 mM sodium acetate pH 5 solution before immobilisation and covalent attachment to the carboxy-methylated dextran matrix of the Biacore CM5 sensor chip. CypA was run against the surface for 420 s and then any unreacted surface was quenched by 420 s of ethanolamine.
Immobilisations were carried out in the presence of JW47 (Warne J Biol Chem. 2016 Feb. 26; 291 (9): 4356-73).
No regeneration stage was required if the dissociation time was sufficient.
Solvent correction was carried out in each experiment using 8 different DMSO dilutions as reference: 2.8%, 2.6%, 2.4%, 2.2%, 2%, 1.8%, 1.6% & 1.5%.
A 50/50 mixture of buffer and DMSO is required to include a wash cycle in the experiment.
50 μl of CypA (0.1 mg/ml)+40 μL of 10 mM sodium acetate pH5+10 μl of 600 μM of JW47 DMSO solution. This mixture was allowed to stand at room temperature for 10 mins prior to set-up in the injection rack.

IFITM3 [1] = target: T1, IFITM3 (Homo sapiens, UniProt Q01628); format: cell-based; set-up: treated with 10 ng/ml type 1 interferon (IFNβ) overnight to induce IFITM3 expression; endogenous in cells; host or cells: THP-1 (human monocytic cell line), IFNβ-treated
T1 sequence (Q01628 whole entry): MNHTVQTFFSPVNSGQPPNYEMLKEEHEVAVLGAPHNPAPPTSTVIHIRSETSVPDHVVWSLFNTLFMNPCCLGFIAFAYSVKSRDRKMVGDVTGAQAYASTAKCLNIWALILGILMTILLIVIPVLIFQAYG

Human stem cells (HSC) = format: cell-based
IFITM3 [2] = target: T1, IFITM3; format: cell-based; set-up: treated with 10 ng/ml type 1 interferon (IFNβ) overnight to induce IFITM3 expression; endogenous in cells; host or cells: THP-1 (human monocytic cell line), IFNβ-treated; remark: listed apart in the source
cyclophilin A (CypA) = cyclophilin A (CypA) (UniProt P62937); experiment: SPR (Biacore, 25 C), CypA amine-coupled to CM5 chip, compound as analyte
cyclophilin A (CypA), sequence (P62937 whole entry): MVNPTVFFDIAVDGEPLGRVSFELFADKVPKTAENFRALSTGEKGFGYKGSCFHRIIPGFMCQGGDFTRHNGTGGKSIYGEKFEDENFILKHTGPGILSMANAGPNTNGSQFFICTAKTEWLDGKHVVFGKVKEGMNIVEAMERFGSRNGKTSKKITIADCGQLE

IFITM3 [3] = target: T1, IFITM3; experiment: cell-based or functional assay

CypA, sequence (P62937 whole entry): as above

Row | Molecule | Max Response (CypA) [RU] | koff (CypA) [s⁻¹] | kon (CypA) [M⁻¹ s⁻¹] | Kd (CypA; read-out: Kd (Affinity)) [µM] | Kd (CypA; read-out: Kd (Kinetics)) [µM] | other results
1 | CCc1cc(C(=O)OCCn2ccnc2)ccc1C=CC[C@@H](C)[C@@H](O)[C@H]1C(=O)N[C@@H](CC)C(=O)N(C)CC(=O)N(C)[C@@H](CC(C)C)C(=O)N[C@@H](C(C)C)C(=O)N(C)[C@@H](CC(C)C)C(=O)N[C@@H](C)C(=O)N[C@H](C)C(=O)N(C)[C@@H](CC(C)C)C(=O)N(C)[C@@H](CC(C)C)C(=O)N(C)[C@@H](C(C)C)C(=O)N1C [BG149] | 4.8 |  |  |  |  | 
2 | CC[C@@H]1NC(=O)[C@H]([C@H](O)[C@H](C)CC=Cc2ccc(C(=O)OCCn3ccnc3)cc2C)N(C)C(=O)[C@H](C(C)C)N(C)C(=O)[C@H](CC(C)C)N(C)C(=O)[C@H](CC(C)C)N(C)C(=O)[C@@H](C)NC(=O)[C@H](C)NC(=O)[C@H](CC(C)C)N(C)C(=O)[C@H](C(C)C)NC(=O)[C@H](CC(C)C)N(C)C(=O)CN(C)C1=O [BG150] | 18.7 | 0.0425 | 11100 | 1.31 | 3.84 | 
3 | CC[C@@H]1NC(=O)[C@H]([C@H](O)[C@H](C)CC=Cc2ccc(C(=O)OCCn3ccnc3)cc2OC)N(C)C(=O)[C@H](C(C)C)N(C)C(=O)[C@H](CC(C)C)N(C)C(=O)[C@H](CC(C)C)N(C)C(=O)[C@@H](C)NC(=O)[C@H](C)NC(=O)[C@H](CC(C)C)N(C)C(=O)[C@H](C(C)C)NC(=O)[C@H](CC(C)C)N(C)C(=O)CN(C)C1=O [BG181] | 9.8 | 0.228 | 6360 | 2.66 | 35.9 | 
4 | CC[C@@H]1NC(=O)[C@H]([C@H](O)[C@H](C)CC=Cc2ccc(C(=O)OCCn3ccnc3)cc2OC(C)C)N(C)C(=O)[C@H](C(C)C)N(C)C(=O)[C@H](CC(C)C)N(C)C(=O)[C@H](CC(C)C)N(C)C(=O)[C@@H](C)NC(=O)[C@H](C)NC(=O)[C@H](CC(C)C)N(C)C(=O)[C@H](C(C)C)NC(=O)[C@H](CC(C)C)N(C)C(=O)CN(C)C1=O [BG185] | 14.5 | 0.584 | 2250 | 2.92 | 259 | 
5 | CC[C@@H]1NC(=O)[C@H]([C@H](O)[C@H](C)CC=Cc2c(OC)cc(C(=O)OCCn3ccnc3)cc2OC)N(C)C(=O)[C@H](C(C)C)N(C)C(=O)[C@H](CC(C)C)N(C)C(=O)[C@H](CC(C)C)N(C)C(=O)[C@@H](C)NC(=O)[C@H](C)NC(=O)[C@H](CC(C)C)N(C)C(=O)[C@H](C(C)C)NC(=O)[C@H](CC(C)C)N(C)C(=O)CN(C)C1=O [BG186, 2-(1H-imidazol-1-yl)ethyl 4-((4R,5R)-5-((2S,5S,11S,14S,17S,20S,23R,26S,29S,32S)-5-ethyl-11,17,26,29-tetraisobutyl-14,32-diisopropyl-1,7,10,16,20,23,25,28,31-nonamethyl-3,6,9,12,15,18,21,24,27,30,33-undecaoxo-1,4,7,10,13,16,19,22,25,28,31-undecaazacyclotritriacontan-2-yl)-5-hydroxy-4-methylpent-1-en-1-yl)-3,5-dimethoxybenzoate] | 7.6 | 0.422 | 14600 |  |  | Kd (CypA; Kd (Affinity)): 4.76 µM; Kd (CypA; Kd (Kinetics)): 28.9 µM
6 | CC[C@@H]1NC(=O)[C@H]([C@H](O)[C@H](C)CC=Cc2ccc(C(=O)OCCn3ccnc3)cc2C(F)(F)F)N(C)C(=O)[C@H](C(C)C)N(C)C(=O)[C@H](CC(C)C)N(C)C(=O)[C@H](CC(C)C)N(C)C(=O)[C@@H](C)NC(=O)[C@H](C)NC(=O)[C@H](CC(C)C)N(C)C(=O)[C@H](C(C)C)NC(=O)[C@H](CC(C)C)N(C)C(=O)CN(C)C1=O [BG190] | 13.2 | 0.0138 | 4800 | 6.07 |  | 
7 | C/C=C/C[C@@H](C)[C@@H](O)[C@H]1C(=O)N[C@@H](CC)C(=O)N(C)CC(=O)N(C)[C@@H](CC(C)C)C(=O)N[C@@H](C(C)C)C(=O)N(C)[C@@H](CC(C)C)C(=O)N[C@@H](C)C(=O)N[C@H](C)C(=O)N(C)[C@@H](CC(C)C)C(=O)N(C)[C@@H](CC(C)C)C(=O)N(C)[C@H](C(C)C)C(=O)N1C [CsH, Cyclosporine H, reference compound] |  |  |  |  |  | rescue of infection from the antiviral effect of IFN (IFITM3 [1]): rescue infection from the antiviral effect of IFN; transduction enhancement (% infected human stem cells), first donor (Human stem cells (HSC)): achieves good enhancement but at higher concentrations
8 | CC[C@@H]1NC(=O)[C@H]([C@H](O)[C@H](C)C/C=C/CCCn2ccnc2)N(C)C(=O)C(C(C)C)N(C)C(=O)[C@H](CC(C)C)N(C)C(=O)[C@H](CC(C)C)N(C)C(=O)[C@@H](C)NC(=O)[C@H](C)NC(=O)[C@H](CC(C)C)N(C)C(=O)[C@H](C(C)C)NC(=O)[C@H](CC(C)C)N(C)C(=O)CN(C)C1=O (stereo partly shown) [JW-115, reference compound] |  |  |  |  |  | fold rescue compared to inhibited baseline (IFITM3 [2]): 14.2 fold
9 | Cyclosporine A (CsA) (peptide) |  |  |  |  |  | Max Response (cyclophilin A (CypA)): 40 RU; fold rescue of HIV-GFP infection compared to IFN-inhibited baseline, THP-1 cells, compound at 5 µM (IFITM3 [3]): 9.9 fold
10 | Cyclosporine H (CsH) (peptide) |  |  |  |  |  | fold rescue of HIV-GFP infection compared to IFN-inhibited baseline, THP-1 cells, compound at 5 µM (IFITM3 [3]): 24.6 fold
